Assay results taken from patent US20150291598A1 (NOVARTIS AG, priority 2012, published 2015).
pEC50: −log10 of the molar value.

The molecules below were run on P. falciparum (NF54 or 3D7 strain) (assay: Assay for P. falciparum proliferation in infected human blood cells (SYBR Green)). Conditions: NF54 or 3D7 infected human erythrocytes, 72 hours; read-out: EC50 (nM), inhibitory efficacy in delaying P. falciparum proliferation in infected human blood cells.
Format: cell-based, Plasmodium falciparum
In short: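 Infected erythrocytes (NF54 or 3D7; final 2.5% hematocrit, 0.3% parasitemia) were incubated with compounds for 72 h at 37 °C in low oxygen (3% O2, 4% CO2, 93% N2).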

SMILES	EC50 [nM]
CN(C(=O)c1cn2c(-c3ccc4c(cnn4C)c3)cnc2cn1)c1ccc(F)cc1 [Compound 107, N-(4-fluorophenyl)-N-methyl-3-(1-methyl-1H-indazol-5-yl)imidazo[1,2-a]pyrazine-6-carboxamide]	218

Same assay, conditions: Plasmodium falciparum, Erythrocyte, 72 h, NF54 or 3D7 infected human erythrocytes, 72 hours; read-out: EC50 (nM), inhibitory efficacy in delaying P. falciparum proliferation in infected human blood cells

SMILES	EC50 [nM]
CN(C(=O)c1ccc(C(F)(F)F)nc1)c1cn2c(-c3ccc(C(F)(F)F)cc3)cnc2cn1 [Compound 308, N-methyl-6-(trifluoromethyl)-N-{3-[4-(trifluoromethyl)phenyl]imidazo[1,2-a]pyrazin-6-yl}pyridine-3-carboxamide]	2020
CN(C(=O)c1cn2c(-c3cncc(S(N)(=O)=O)c3)cnc2cn1)c1ccc(C#N)cc1 [Compound 184, N-(4-cyanophenyl)-N-methyl-3-(5-sulfamoylpyridin-3-yl)imidazo[1,2-a]pyrazine-6-carboxamide]	> 10000
CN(C(=O)c1cn2c(-c3ccc(N4CCCC4)nc3)cnc2cn1)c1ccc(C#N)cc1 [Compound 82, N-(4-cyanophenyl)-N-methyl-3-[6-(pyrrolidin-1-yl)pyridin-3-yl]imidazo[1,2-a]pyrazine-6-carboxamide]	2340
O=C(NCc1ccc(N2CCOCC2)cc1)c1cn2c(-c3ccc(C(F)(F)F)cc3)cnc2cn1 [Compound 383, N-{[4-(morpholin-4-yl)phenyl]methyl}-3-[4-(trifluoromethyl)phenyl]imidazo[1,2-a]pyrazine-6-carboxamide]	> 10000
COc1cncc(-c2cnc3cnc(C(=O)N(C)c4ccc(C#N)cc4)cn23)n1 [Compound 335, N-(4-cyanophenyl)-3-(6-methoxypyrazin-2-yl)-N-methylimidazo[1,2-a]pyrazine-6-carboxamide]	5340
CN(C(=O)c1ccc(OC(F)(F)F)cc1)c1cn2c(-c3ccc(C(F)(F)F)cc3)cnc2cn1 [Compound 366, N-methyl-4-(trifluoromethoxy)-N-{3-[4-(trifluoromethyl)phenyl]imidazo[1,2-a]pyrazin-6-yl}benzamide]	> 6250
CN(C(=O)c1cn2c(-c3ccc(C(F)(F)F)cc3)cnc2cn1)c1ccc(C#N)c(Cl)c1 [Compound 502, N-(3-chloro-4-cyanophenyl)-N-methyl-3-[4-(trifluoromethyl)phenyl]imidazo[1,2-a]pyrazine-6-carboxamide]	2000
COC[C@@H]1CCCN1c1ccc(N(C)C(=O)c2cn3c(-c4ccc(C(F)(F)F)cc4)cnc3cn2)cn1 [Compound 359, N-{6-[(2S)-2-(methoxymethyl)pyrrolidin-1-yl]pyridin-3-yl}-N-methyl-3-[4-(trifluoromethyl)phenyl]imidazo[1,2-a]pyrazine-6-carboxamide]	> 10000
CN(C(=O)c1cn2c(-c3ccc(C(F)(F)F)cc3)cnc2cn1)c1cncc(F)c1 [Compound 66, N-(5-fluoropyridin-3-yl)-N-methyl-3-[4-(trifluoromethyl)phenyl]imidazo[1,2-a]pyrazine-6-carboxamide]	5000
CS(=O)(=O)c1ccc2c(c1)CCN2C(=O)c1cn2c(-c3ccc(C(F)(F)F)cc3)cnc2cn1 [Compound 7, 5-methanesulfonyl-1-({3-[4-(trifluoromethyl)phenyl]imidazo[1,2-a]pyrazin-6-yl}carbonyl)-2,3-dihydro-1H-indole]	> 10000
Cc1cccc(CN(C)C(=O)c2cn3c(-c4ccc(C(F)(F)F)cc4)cnc3cn2)n1 [Compound 190, N-methyl-N-[(6-methylpyridin-2-yl)methyl]-3-[4-(trifluoromethyl)phenyl]imidazo[1,2-a]pyrazine-6-carboxamide]	6240

Results, then the molecule that gave them:

EC50 [nM]	SMILES
320	CN(C(=O)c1cn2c(-c3ccc4c(ccn4C)c3)cnc2cn1)c1ccc(F)cc1 [Compound 136, N-(4-fluorophenyl)-N-methyl-3-(1-methyl-1H-indol-5-yl)imidazo[1,2-a]pyrazine-6-carboxamide]
35	COc1cc(Cl)ccc1N(C)C(=O)c1cn2c(-c3ccc(C(F)(F)F)cc3)cnc2cn1 [Compound 59, N-(4-chloro-2-methoxyphenyl)-N-methyl-3-[4-(trifluoromethyl)phenyl]imidazo[1,2-a]pyrazine-6-carboxamide]
155	CN(C(=O)c1cn2c(-c3ccc(NC(=O)C4CCC[C@H]4N)cc3)cnc2cn1)c1ccc(C#N)cc1 (stereo partly drawn) [Compound 255, 3-(4-{[(1S,2R)-2-aminocyclopentane]amido}phenyl)-N-(4-cyanophenyl)-N-methylimidazo[1,2-a]pyrazine-6-carboxamide]
333	COc1ccc(-c2cnc3cnc(C(=O)N(C)c4ccc(C#N)cc4)cn23)cc1Cl [Compound 42, -(3-chloro-4-methoxyphenyl)-N-(4-cyanophenyl)-N-methylimidazo[1,2-a]pyrazine-6-carboxamide]
3410	CN(C(=O)c1cn2c(-c3ccc(C(F)(F)F)c(F)c3)cnc2cn1)c1ccc(Cl)nc1 [Compound 332, N-(6-chloropyridin-3-yl)-3-[3-fluoro-4-(trifluoromethyl)phenyl]-N-methylimidazo[1,2-a]pyrazine-6-carboxamide]
> 6830	CN(C(=O)c1cn2c(-c3ccc(C(F)(F)F)cc3)cnc2cn1)c1ccc(CN)cc1 [Compound 375, N-[4-(aminomethyl)phenyl]-N-methyl-3-[4-(trifluoromethyl)phenyl]imidazo[1,2-a]pyrazine-6-carboxamide]
318	CN(C(=O)c1cn2c(-c3ccc(C(F)F)cc3)cnc2cn1)c1ccc(Cl)nc1 [Compound 265, N-(6-chloropyridin-3-yl)-3-[4-(difluoromethyl)phenyl]-N-methylimidazo[1,2-a]pyrazine-6-carboxamide]
310	CNc1ccc(-c2cnc3cnc(C(=O)N(C)c4ccc(C#N)cc4)cn23)cn1 [Compound 246, N-(4-cyanophenyl)-N-methyl-3-[6-(methylamino)pyridin-3-yl]imidazo[1,2-a]pyrazine-6-carboxamide]
4340	CN(C(=O)c1cn2c(-c3ccc(-c4nnn[nH]4)cc3)cnc2cn1)c1ccc(C#N)cc1 [Compound 180, N-(4-cyanophenyl)-N-methyl-3-[4-(1H-1,2,3,4-tetrazol-5-yl)phenyl]imidazo[1,2-a]pyrazine-6-carboxamide]
7450	CN(C(=O)c1cn2c(-c3ccc4c(cnn4C)c3)cnc2cn1)c1ccc(S(C)(=O)=O)cc1 [Compound 205, N-(4-methanesulfonylphenyl)-N-methyl-3-(1-methyl-1H-indazol-5-yl)imidazo[1,2-a]pyrazine-6-carboxamide]
> 10000	CN(C(=O)c1cn2c(-c3ccnc(Cl)c3)cnc2cn1)c1ccc(C#N)cc1 [Compound 27, 3-(2-chloropyridin-4-yl)-N-(4-cyanophenyl)-N-methylimidazo[1,2-a]pyrazine-6-carboxamide]
51	CN(C(=O)c1cn2c(-c3ccc(Cl)cc3)cnc2cn1)c1ccc(F)cc1 [Compound 103, 3-(4-chlorophenyl)-N-(4-fluorophenyl)-N-methylimidazo[1,2-a]pyrazine-6-carboxamide]
9	CNc1nnc(-c2ccc(-c3cnc4cnc(C(=O)N(C)c5ccc(Cl)cc5)cn34)cc2)o1 [Compound 483, N-(4-chlorophenyl)-N-methyl-3-{4-[5-(methylamino)-1,3,4-oxadiazol-2-yl]phenyl}imidazo[1,2-a]pyrazine-6-carboxamide]
4130	COc1ncc(-c2cnc3cnc(C(=O)N(C)c4ccc(C#N)cc4)cn23)cn1 [Compound 333, N-(4-cyanophenyl)-3-(2-methoxypyrimidin-5-yl)-N-methylimidazo[1,2-a]pyrazine-6-carboxamide]

Same assay, conditions: Plasmodium falciparum, Erythrocyte, infected human red blood cells; read-out: EC50, P. falciparum Proliferation Assay

SMILES	pEC50
CNc1nnc(-c2ccc(-c3cnc4cnc(C(=O)N(C)c5ccc(Cl)cc5)cn34)cc2)o1 [Compound 483, N-(4-chlorophenyl)-N-methyl-3-{4-[5-(methylamino)-1,3,4-oxadiazol-2-yl]phenyl}imidazo[1,2-a]pyrazine-6-carboxamide]	> 7.30
